Laboratory results published in patent US20250236608A1, “EGFR INHIBITORS” (Blueprint Medicines Corporation, priority 2022, published 2025).

Legend:
[1] = molecular target: EGFR L858R (Homo sapiens (Human), UniProt P00533, L858R); assay: Biochemical EGFR inhibition assay, EGFR L858R; settings: Caliper mobility shift; 1.0 mM ATP or ATP Km; read-out: Enz EGFR_L858R IC50
[2] = molecular target: EGFR (d746-750) (Homo sapiens (Human), UniProt P00533, DEL746-750); assay: Biochemical EGFR inhibition assay, EGFR (d746-750); settings: Caliper mobility shift; 1.0 mM ATP or ATP Km; read-out: Enz EGFR_Exon19-del746-750 IC50
[3] = molecular target: pEGFR (Tyr1068) in PC-9 cells (Ex19Del) (Homo sapiens (Human), UniProt P00533, DEL746-750); assay: PC-9 pEGFR AlphaLISA assay; format: cell-based; settings: 4 hours incubation, p-EGFR (Tyr1068) AlphaLISA, read-out: Ext pEGFR_PC-9 Ex19Del IC50
Outline: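 Readout: AlphaLISA SureFire Ultra signal in cell lysates, with acceptor beads for 1.5-2 h and donor beads overnight at room temperature in the dark. Beforehand, unstimulated cells in 10% FBS medium received compounds (10 points, 4-fold steps) for 4 h at 37° C. IC50 came from percent inhibition curves.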

Sequence of pEGFR (Tyr1068) in PC-9 cells (Ex19Del) (P00533 other isoform, or with tags, fused parts or gaps del 746-750): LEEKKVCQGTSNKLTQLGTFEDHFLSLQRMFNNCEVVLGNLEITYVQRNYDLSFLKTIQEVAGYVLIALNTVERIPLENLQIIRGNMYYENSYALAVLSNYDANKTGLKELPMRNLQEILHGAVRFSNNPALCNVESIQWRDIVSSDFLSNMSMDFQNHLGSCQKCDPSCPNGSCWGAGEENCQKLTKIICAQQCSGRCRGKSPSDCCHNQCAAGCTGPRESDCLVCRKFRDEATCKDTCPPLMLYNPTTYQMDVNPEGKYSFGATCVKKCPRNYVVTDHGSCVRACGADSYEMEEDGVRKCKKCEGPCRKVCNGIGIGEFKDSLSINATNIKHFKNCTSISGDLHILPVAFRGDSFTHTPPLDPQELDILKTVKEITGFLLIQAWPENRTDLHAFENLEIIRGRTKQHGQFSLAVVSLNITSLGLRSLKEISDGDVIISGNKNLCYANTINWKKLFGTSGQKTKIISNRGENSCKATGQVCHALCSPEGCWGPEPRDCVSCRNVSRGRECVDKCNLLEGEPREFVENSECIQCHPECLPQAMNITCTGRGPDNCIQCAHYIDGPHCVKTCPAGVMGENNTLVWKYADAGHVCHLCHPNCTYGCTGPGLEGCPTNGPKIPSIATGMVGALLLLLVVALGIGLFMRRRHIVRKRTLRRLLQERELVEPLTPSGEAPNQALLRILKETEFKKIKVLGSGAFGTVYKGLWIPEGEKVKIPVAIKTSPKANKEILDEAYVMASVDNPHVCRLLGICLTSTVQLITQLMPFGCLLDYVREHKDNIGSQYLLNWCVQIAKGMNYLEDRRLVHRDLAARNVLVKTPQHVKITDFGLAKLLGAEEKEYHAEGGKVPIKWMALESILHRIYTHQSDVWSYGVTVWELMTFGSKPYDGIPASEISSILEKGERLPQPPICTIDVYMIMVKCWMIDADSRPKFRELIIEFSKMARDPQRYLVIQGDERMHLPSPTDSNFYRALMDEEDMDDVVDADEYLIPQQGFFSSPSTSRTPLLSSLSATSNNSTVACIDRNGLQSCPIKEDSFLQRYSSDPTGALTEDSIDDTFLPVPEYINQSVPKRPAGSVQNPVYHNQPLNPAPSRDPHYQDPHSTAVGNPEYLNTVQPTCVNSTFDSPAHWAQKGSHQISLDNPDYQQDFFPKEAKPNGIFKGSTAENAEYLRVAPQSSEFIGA
Sequence of EGFR (d746-750) (P00533 other isoform, or with tags, fused parts or gaps del 1-694/del 746-750 limits assumed): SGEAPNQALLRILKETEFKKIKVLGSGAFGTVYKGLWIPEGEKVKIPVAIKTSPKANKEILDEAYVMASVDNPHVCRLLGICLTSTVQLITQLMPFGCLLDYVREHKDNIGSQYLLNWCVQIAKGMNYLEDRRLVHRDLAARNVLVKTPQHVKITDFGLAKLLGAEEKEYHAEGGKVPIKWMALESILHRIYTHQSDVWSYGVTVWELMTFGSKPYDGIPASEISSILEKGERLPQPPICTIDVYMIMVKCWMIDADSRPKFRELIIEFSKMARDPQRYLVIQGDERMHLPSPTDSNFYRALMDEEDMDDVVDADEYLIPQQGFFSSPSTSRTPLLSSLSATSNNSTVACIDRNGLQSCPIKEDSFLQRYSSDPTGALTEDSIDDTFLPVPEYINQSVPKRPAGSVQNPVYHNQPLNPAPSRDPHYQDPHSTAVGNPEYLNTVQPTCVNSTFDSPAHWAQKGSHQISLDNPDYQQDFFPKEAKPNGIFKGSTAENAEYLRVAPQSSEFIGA
Sequence of EGFR L858R (P00533 25-1210 L858R): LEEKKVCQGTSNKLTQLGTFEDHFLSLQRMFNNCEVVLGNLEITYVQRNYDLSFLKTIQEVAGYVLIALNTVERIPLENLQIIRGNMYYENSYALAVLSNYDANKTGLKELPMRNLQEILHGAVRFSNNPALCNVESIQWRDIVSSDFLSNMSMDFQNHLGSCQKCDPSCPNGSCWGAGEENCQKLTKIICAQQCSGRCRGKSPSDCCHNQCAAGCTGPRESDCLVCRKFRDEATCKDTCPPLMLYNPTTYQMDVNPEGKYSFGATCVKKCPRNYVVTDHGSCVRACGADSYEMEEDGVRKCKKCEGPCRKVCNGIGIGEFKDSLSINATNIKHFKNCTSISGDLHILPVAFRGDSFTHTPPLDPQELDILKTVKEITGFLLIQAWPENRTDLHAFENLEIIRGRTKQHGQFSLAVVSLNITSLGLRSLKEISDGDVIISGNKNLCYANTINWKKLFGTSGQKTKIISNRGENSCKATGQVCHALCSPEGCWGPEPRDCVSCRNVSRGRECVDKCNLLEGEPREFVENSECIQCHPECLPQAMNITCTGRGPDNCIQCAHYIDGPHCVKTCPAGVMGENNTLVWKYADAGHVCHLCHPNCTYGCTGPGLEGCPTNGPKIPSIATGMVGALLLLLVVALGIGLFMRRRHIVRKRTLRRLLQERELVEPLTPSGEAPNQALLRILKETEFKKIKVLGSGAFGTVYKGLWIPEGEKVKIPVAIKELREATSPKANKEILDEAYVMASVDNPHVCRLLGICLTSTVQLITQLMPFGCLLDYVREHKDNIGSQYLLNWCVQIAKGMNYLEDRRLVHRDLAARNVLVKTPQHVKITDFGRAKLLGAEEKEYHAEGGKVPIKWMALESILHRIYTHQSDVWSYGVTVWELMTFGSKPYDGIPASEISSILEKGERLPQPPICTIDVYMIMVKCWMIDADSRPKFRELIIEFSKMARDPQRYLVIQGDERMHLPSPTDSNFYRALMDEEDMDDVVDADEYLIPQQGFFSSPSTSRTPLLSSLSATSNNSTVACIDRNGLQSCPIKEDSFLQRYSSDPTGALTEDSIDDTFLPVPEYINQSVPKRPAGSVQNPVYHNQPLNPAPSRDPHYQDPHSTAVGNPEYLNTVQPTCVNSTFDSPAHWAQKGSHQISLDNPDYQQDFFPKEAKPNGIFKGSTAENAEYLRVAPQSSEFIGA

IC50 [1] [nM] | IC50 [2] [nM] | IC50 [3] [nM] | SMILES
13.1 | 6.4 | 9.8 | CCOc1cc2ncnc(-c3cn(C)nc3-c3ccccc3)c2cc1OC1CCN(C)CC1 [Example 9, 7-ethoxy-4-(1-methyl-3-phenyl-1H-pyrazol-4-yl)-6-((1-methylpiperidin-4-yl)oxy)quinazoline]
0.8 | 0.4 | 1.3 | CCc1nc2c(-c3cn(C)nc3-c3ccccc3)ncnc2cc1OC [Example 136, 6-ethyl-7-methoxy-4-(1-methyl-3-phenyl-1H-pyrazol-4-yl)pyrido[3,2-d]pyrimidine]
14 | 9 | 5.1 | COc1cc2ncnc(-c3cn(C)nc3-c3ccccc3)c2cc1NC(=O)c1cc2n(n1)CCCC2 [Example 225, N-(7-methoxy-4-(1-methyl-3-phenyl-1H-pyrazol-4-yl)quinazolin-6-yl)-4,5,6,7-tetrahydropyrazolo[1,5-a]pyridine-2-carboxamide]
3.7 | 1.9 | 6 | CCC(=O)Nc1cc2c(-c3cn(C)nc3-c3ccccc3)ncnc2cc1OCC1COC1 [Example 277, N-(4-(1-methyl-3-phenyl-1H-pyrazol-4-yl)-7-(oxetan-3-ylmethoxy)quinazolin-6-yl)propionamide]
18.1 | 4.8 | 11 | Cn1cc(-c2ncnc3cc(C#CCN4CCOCC4)c(NC(=O)C45CC(C4)C5)nc23)c(-c2ccccc2)n1 [Example 454, N-(4-(1-methyl-3-phenyl-1H-pyrazol-4-yl)-7-(3-morpholinoprop-1-yn-1-yl)pyrido[3,2-d]pyrimidin-6-yl)bicyclo[1.1.1]pentane-1-carboxamide]
1.9 | 1.2 | 3.8 | CCOc1cc2ncnc(-c3cn(C4CC4)nc3-c3ccccc3)c2cc1[C@H](C)O (single isomer, unassigned) [Example 112, (S)-1-(4-(1-cyclopropyl-3-phenyl-1H-pyrazol-4-yl)-7-ethoxyquinazolin-6-yl)ethan-1-ol or (R)-1-(4-(1-cyclopropyl-3-phenyl-1H-pyrazol-4-yl)-7-ethoxyquinazolin-6-yl)ethan-1-ol]
1.7 | 0.7 | 3.2 | COc1cc2ncnc(-c3cn(C)nc3-c3ccc(F)cc3F)c2cc1N1CCOCC1 [Example 166, 4-(4-(3-(2,4-difluorophenyl)-1-methyl-1H-pyrazol-4-yl)-7-methoxyquinazolin-6-yl)morpholine]
5.6 | 4.4 | 69.1 | Cc1c(-c2ncnc3cc(-c4cnn(C)c4)ccc23)c(-c2ccccc2)nn1C [Example 480, 4-(1,5-dimethyl-3-phenyl-1H-pyrazol-4-yl)-7-(1-methyl-1H-pyrazol-4-yl)quinazoline]
1.6 | 1 | 1.2 | CCOc1cc2ncnc(-c3cn(C)nc3-c3ccccc3)c2nc1N1CC2(COC2)C1 [Example 175, 6-(7-ethoxy-4-(1-methyl-3-phenyl-1H-pyrazol-4-yl)pyrido[3,2-d]pyrimidin-6-yl)-2-oxa-6-azaspiro[3.3]heptane]
9.3 | 3.9 | 8.7 | COc1cc2ncnc(-c3cn(C)nc3-c3ccccc3)c2nc1NC(=O)[C@H](C)N(C)C [Example 390, (S)-2-(dimethylamino)-N-(7-methoxy-4-(1-methyl-3-phenyl-1H-pyrazol-4-yl)pyrido[3,2-d]pyrimidin-6-yl) propenamide]
1.7 | 0.9 | 1.4 | CCn1cc(-c2ncnc3cc(OC)c(NC(=O)c4cnn(C(F)(F)F)c4)cc23)c(-c2ccccc2)n1 [Example 307, N-(4-(1-ethyl-3-phenyl-1H-pyrazol-4-yl)-7-methoxyquinazolin-6-yl)-1-(trifluoromethyl)-1H-pyrazole-4-carboxamide]
5.1 | 3.3 | 3.5 | COc1cc2ncnc(-c3cn(C)nc3-c3ccc(F)cc3)c2cc1NC(=O)c1cn(C)nc1C [Example 305, N-(4-(3-(4-fluorophenyl)-1-methyl-1H-pyrazol-4-yl)-7-methoxyquinazolin-6-yl)-1,3-dimethyl-1H-pyrazole-4-carboxamide]
10.4 | 5.1 | 10.4 | COc1cc2ncnc(-c3cn(C)nc3-c3ccccc3)c2cc1NC(=O)c1cncc(F)c1 [Example 327, 5-fluoro-N-(7-methoxy-4-(1-methyl-3-phenyl-1H-pyrazol-4-yl)quinazolin-6-yl)nicotinamide]
1.6 | 1.1 | 1.9 | COc1cc2ncnc(-c3cn(C)nc3-c3ccccc3)c2cc1NC(=O)c1cccc(F)c1Cl [Example 199, 2-chloro-3-fluoro-N-(7-methoxy-4-(1-methyl-3-phenyl-1H-pyrazol-4-yl)quinazolin-6-yl)benzamide]
0.9 | 0.6 | 0.6 | COc1cc2ncnc(-c3cn(CC(F)F)nc3-c3ccccc3)c2cc1NC(=O)c1cncs1 [Example 213, N-(4-(1-(2,2-difluoroethyl)-3-phenyl-1H-pyrazol-4-yl)-7-methoxyquinazolin-6-yl)thiazole-5-carboxamide]
1.2 | 0.7 | 3.1 | CCOc1cc2ncnc(-c3cn(C4CC4)nc3-c3ccccc3)c2cc1CO [Example 135, (4-(1-cyclopropyl-3-phenyl-1H-pyrazol-4-yl)-7-ethoxyquinazolin-6-yl)methanol]
2.1 | 1.4 | 1.4 | COc1cc2ncnc(-c3cn(CC(F)F)nc3-c3ccccc3)c2cc1NC(=O)c1cnn(C(C)C)c1 [Example 270, N-(4-(1-(2,2-difluoroethyl)-3-phenyl-1H-pyrazol-4-yl)-7-methoxyquinazolin-6-yl)-1-isopropyl-1H-pyrazole-4-carboxamide]
1.3 | 0.8 | 0.5 | COc1cc2ncnc(-c3cn(C)nc3-c3ccccc3)c2cc1NC(=O)[C@H]1CCN(C)C[C@@H]1F [Example 285, (3R,4R)-3-fluoro-N-(7-methoxy-4-(1-methyl-3-phenyl-1H-pyrazol-4-yl)quinazolin-6-yl)-1-methylpiperidine-4-carboxamide]
2.1 | 1.3 | 5.2 | CCOc1cc2ncnc(-c3cn(C)nc3-c3ccccc3)c2cc1[C@@H](C)O (single isomer, unassigned) [Example 104, (R)-1-(7-ethoxy-4-(1-methyl-3-phenyl-1H-pyrazol-4-yl)quinazolin-6-yl)ethan-1-ol or (S)-1-(7-ethoxy-4-(1-methyl-3-phenyl-1H-pyrazol-4-yl)quinazolin-6-yl)ethan-1-ol]
1.4 | 0.8 | 4.2 | COc1cc2ncnc(-c3sc(C)nc3-c3ccccc3)c2nc1NC(=O)C1CC1 [Example 437, N-(7-methoxy-4-(2-methyl-4-phenylthiazol-5-yl)pyrido[3,2-d]pyrimidin-6-yl)cyclopropanecarboxamide]
1.3 | 0.9 | 0.9 | COc1cc2ncnc(-c3cn(CC(F)F)nc3-c3ccccc3)c2cc1NC(=O)C(F)F [Example 269, N-(4-(1-(2,2-difluoroethyl)-3-phenyl-1H-pyrazol-4-yl)-7-methoxyquinazolin-6-yl)-2,2-difluoroacetamide]
2.2 | 1.3 | 2.3 | COc1cc2ncnc(-c3cn(C)nc3-c3ccccc3)c2cc1NC(=O)[C@H](C)F (single isomer, unassigned) [Example 244, (S)-2-fluoro-N-(7-methoxy-4-(1-methyl-3-phenyl-1H-pyrazol-4-yl)quinazolin-6-yl) propenamide or (R)-2-fluoro-N-(7-methoxy-4-(1-methyl-3-phenyl-1H-pyrazol-4-yl)quinazolin-6-yl) propenamide]
2.2 | 1.2 | 1.5 | COc1cc2ncnc(-c3cn(C)nc3-c3ccccc3)c2cc1-c1cn(C)nc1C [Example 150, 6-(1,3-dimethyl-1H-pyrazol-4-yl)-7-methoxy-4-(1-methyl-3-phenyl-1H-pyrazol-4-yl)quinazoline]
6.7 | 2.2 | 11.7 | COc1cc2ncnc(-c3cn(C)nc3-c3ccccc3)c2cc1N1CC[C@H](F)[C@@H](O)C1 (single isomer, unassigned) [Example 172, (3S,4S)-4-fluoro-1-(7-methoxy-4-(1-methyl-3-phenyl-1H-pyrazol-4-yl)quinazolin-6-yl) piperidin-3-ol or (3R,4R)-4-fluoro-1-(7-methoxy-4-(1-methyl-3-phenyl-1H-pyrazol-4-yl)quinazolin-6-yl) piperidin-3-ol]
1.6 | 1 | 1.4 | COc1cc2ncnc(-c3cn(C)nc3-c3ccccc3)c2cc1NC(=O)c1cnn2c1CCCC2 [Example 226, N-(7-methoxy-4-(1-methyl-3-phenyl-1H-pyrazol-4-yl)quinazolin-6-yl)-4,5,6,7-tetrahydropyrazolo[1,5-a]pyridine-3-carboxamide]
5.5 | 2.4 | 11.2 | CC(C)Oc1cc2ncnc(-c3cn(C)nc3-c3ccccc3)c2cc1[C@H](C)O (single isomer, unassigned) [Example 113, (S)-1-(7-isopropoxy-4-(1-methyl-3-phenyl-1H-pyrazol-4-yl)quinazolin-6-yl)ethan-1-ol or (R)-1-(7-isopropoxy-4-(1-methyl-3-phenyl-1H-pyrazol-4-yl)quinazolin-6-yl)ethan-1-ol]
